The source of these data is paper PMC4822050, “Hemi-methylated DNA opens a closed conformation of UHRF1 to facilitate its histone recognition” (Nature Communications, 2016).

In test [1] the target is T1, TTD (residues 134–285) of UHRF1 (Homo sapiens, UniProt Q96T88).
T1 construct: TTD (residues 134–285); GST (N, cleaved yes); made in house; host or cells: E. coli BL21 (DE3)
T1 sequence (Q96T88 134-285): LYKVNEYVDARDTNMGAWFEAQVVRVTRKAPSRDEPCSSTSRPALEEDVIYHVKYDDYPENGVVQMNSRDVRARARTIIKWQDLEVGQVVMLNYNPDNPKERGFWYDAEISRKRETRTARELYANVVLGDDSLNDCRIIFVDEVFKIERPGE
Kind of test: ITC, TTD titrated into Spacer variants and other UHRF1 fragments. The format is binding. To be noted: TTD in syringe. On the procedure: (§1) For competition ITC experiments: the indicated proteins were pre-incubated with competitive peptide, protein or hm-DNA (at 1:2 molar ratio if not specified) for 10 min followed by ITC measurements as described above. Proteins, DNA and peptides were prepared within ITC buffer containing 10 mM HEPES, pH 8.0, 100 mM NaCl. The data were fitted by software Origin 7.0. All ITC results were summarized in Supplementary Table 2 and raw data were shown in Supplementary Fig. 9.
In general terms: In ITC the heat of successive injections is recorded.

The target in another test is FAM-16bp-HM-DNA. In words: Fluorescence polarization, 16-bp FAM-hm-DNA. Type of test: binding. To be noted: FP, DNA length series. The procedure:
(§2) FP measurements were performed at 25 °C on Synergy 4 Microplate Reader (BioTek). The 16-bp and 20-bp FAM-labelled hm-DNA (lower strand: 5′-GTGTCAGXGCATGGCC-3′ and 5′-CCGTGTCAGXGCATGGCCAT-3′, respectively. X=5-methyldeoxycytosine) were used in the FP experiment to test the effect of DNA length on the protein/DNA interaction. All experiments were performed in triplicate. The curves were fitted by GraphPad Prism 5. For salt concentration-dependent FP experiments, the reaction buffer contains 50 mM or 150 mM NaCl, respectively.

The target in the next test is FAM-20bp-HM-DNA. In words: Fluorescence polarization, 20-bp FAM-hm-DNA. The format is binding. As to conditions: FP, DNA length series. The procedure: as §2
For orientation: Polarisation of emitted light reports the rotation of a fluorescent probe.

The target of the next test is hm-DNA (12 bp). Kind of test: ITC, hm-DNA titrated into UHRF1 domains. Type of test: binding. As to conditions: 18 °C, 12-bp hm-DNA in syringe, named protein in cell, 10 mM HEPES pH 8.0, 100 mM NaCl. The procedure: as §1
Test [2] addresses PHD (residues 307–366) of UHRF1. In words: ITC, PHD titrated into UHRF1 domains. As to conditions: 18 °C, PHD in syringe, named protein in cell, 10 mM HEPES pH 8.0, 100 mM NaCl. Type of test: binding, human. The procedure: as §1
A further test deals with RFTS^DNMT1. Kind of test: ITC, RFTS of DNMT1 with SRA or SRA-Spacer. As to conditions: 18 °C, RFTS^DNMT1 with named protein, 10 mM HEPES pH 8.0, 100 mM NaCl. Type of test: binding. On the procedure:
as §1

The next test addresses FAM-12bp-HM-DNA. Kind of test: Fluorescence polarization, 12-bp FAM-hm-DNA. Type of test: binding. As to conditions: FP. The procedure: A 6-carboxy-fluorescein (FAM)-labelled primer, 5′-CCATGCGCTGAC-3′, was annealed to a primer 5′-GTCAGXGCATGG-3′ (X=5-methyldeoxycytosine). The hemi-methylated double-strand DNA was used in both electrophoretic mobility-shift assay and FP assays. […] The samples were subjected to a 10% polyacrylamide gel electrophoresis and run in 0.5 × Tris-borate-EDTA buffer at 100 V for 1 h at 4 °C. The results were visualized on Tanon-5200 Chemiluminescent Imaging System (Tanon Science & Technology Co., Ltd).
as §2

In a further test the target is H3K9me3 peptide (1–17). In words: ITC, H3K9me3 peptide (1-17) titrated into UHRF1 proteins. Type of test: binding. To be noted: ITC, 18 °C; named protein 0.05 mM in cell, H3K9me3 (1-17) 0.5 mM in syringe; 10 mM HEPES pH 8.0, 100 mM NaCl; read-out: KD. The procedure:
as §1

In test [3] the test system is DAPI foci (pericentromeric heterochromatin) in NIH3T3 cells. Kind of test: Subcellular localization of GFP-tagged UHRF1 in NIH3T3 cells. Type of test: cell-based. To be noted: GFP-tagged protein transiently overexpressed in NIH3T3 cells, 36 h after transfection; at least 100 cells counted; repeated three times. On the procedure:
NIH3T3 cells were obtained from the Shanghai Institute of Biochemistry and Cell Biology. Wild type and mutants of UHRF1 were sub-cloned into pEGFP-C1 vector. Transient transfections of NIH3T3 cells were carried out using Lipofectamine 2000 (Invitrogen). The NIH3T3 cells were grown on glass coverslips and harvested in 36 h after transfection. The images were acquired and examined as previously described. Briefly, cells were fixed with 4% paraformaldehyde for 25 min, then washed with PBS three times. Coverslips were mounted with Antifade reagent containing DAPI (Molecular Probes) on slides and examined with a confocal microscopy.

For test [4], the target named is H3 peptide (1–17) (H3K9me0). In words: ITC, H3 (H3K9me0) peptide (1-17) titrated into UHRF1 proteins. The format is binding. On the procedure:
as §1

[5] abbreviates: 25 °C, 20 min, 20 mM HEPES pH 7.5, 175 mM NaCl, 8% glycerol, 1 mM DTT, triplicate, Fig. 5b and Supplementary Table 4.

Substance “Spacer642-674: Spacer fragment, residues 642–674 (TGKGKWKRKSAGGGPSRAGSPRRTSKKTKVEPY; left off: GST, end not stated, cleaved)” registered a N in test [1] (ITC stoichiometry) of 1.09±0.00765. Also, in [1] (ITC), the ΔH is -11.3 kcal/mol and the ΔS was -11.2 cal/mol/deg.

Turning to “Spacer587-641: Spacer fragment, residues 587–641 (PGPWTKEGKDRIKKLGLTMQYPEGYLEALANREREKENSKREEEEQQEGGFASPR; left off: GST, end not stated, cleaved)”, the KD result in test [1] (ITC, 18 °C, named protein or peptide in cell, 10 mM HEPES pH 8.0, 100 mM NaCl) is reported as “no detectable interaction”.

For orientation: Kd means a measure of binding affinity in units of concentration. As to “SRA: SET-and-RING-associated domain of human UHRF1 (residues 414–617)”, the Kd was found to be 29.4 ± 9.74 µM on FAM-16bp-HM-DNA; 9.59 ± 4.78 µM at FAM-20bp-HM-DNA; 25.1 µM on hm-DNA (12 bp); 26.7 ± 12.1 µM in [2]; 0.15 ± 0.018 µM at FAM-12bp-HM-DNA (12-bp hm-DNA, 50 mM NaCl); 5.92 ± 1.32 µM on FAM-12bp-HM-DNA (12-bp hm-DNA, 150 mM NaCl). Further, the dissociation constant (Kd) at FAM-12bp-HM-DNA (setting [5]) was determined as 9.23 ± 3.07 µM; on FAM-12bp-HM-DNA (DNA length series, Supplementary Table 5, 12-bp hm-DNA) it was 12.8 ± 2.07 µM. The KD result at RFTS^DNMT1 is on record as “no detectable interaction”.

With “UHRF1: recombinant human UHRF1 (residues 1–793); GFP-tagged in the cell assay”, the Kd at H3K9me3 peptide (1–17) was 4.61 ± 0.47 µM; in test [4] (ITC, 18 °C, named protein 0.05 mM in cell, H3 (1-17) 0.5 mM in syringe, 10 mM HEPES pH 8.0, 100 mM NaCl), 26 ± 7.01 µM; on FAM-12bp-HM-DNA (setting [5]), 0.35 µM. In addition, the “percentage of cells showing co-localization with DAPI foci” value in test [3] came out at 74.6%.

Consider “PHD: plant homeodomain of human UHRF1 (residues 307–366) (DDVNRLCRVCACHLCGGRQDPDKQLMCDECDMAFHIYCLDPPLSSVPSEDEWYCPECRND; UniProt Q96T88 307-366, looked up, fragment)”, for which, in test [4] (ITC KD ratio), the “fold higher binding affinity to H3K9me0 peptide than full-length UHRF1” value is about 34 fold.
